According to patent US10399948B2, “Negative allosteric modulators of metabotropic glutamate receptor 3” (Vanderbilt University, priority 2015, dated 2019):
Like-named read-outs stand apart in the source and are kept apart here.

Experiments:
Format in all cases: cell-based
rat mGlu3 = rat mGlu3 (Rattus norvegicus (Rat), UniProt P31422); assay: mGlu3 Ca2+ flux assay; conditions: for IC50: NAM, glutamate EC80, >10,000 = decrease without plateau, >30,000 = no measurable activity; for remaining activity at 30 µM: response at 30 μM test compound as percentage of maximal response to glutamate, read-out: rat mGlu3 Glu max (%)
rat mGlu3, sequence (P31422 23-879): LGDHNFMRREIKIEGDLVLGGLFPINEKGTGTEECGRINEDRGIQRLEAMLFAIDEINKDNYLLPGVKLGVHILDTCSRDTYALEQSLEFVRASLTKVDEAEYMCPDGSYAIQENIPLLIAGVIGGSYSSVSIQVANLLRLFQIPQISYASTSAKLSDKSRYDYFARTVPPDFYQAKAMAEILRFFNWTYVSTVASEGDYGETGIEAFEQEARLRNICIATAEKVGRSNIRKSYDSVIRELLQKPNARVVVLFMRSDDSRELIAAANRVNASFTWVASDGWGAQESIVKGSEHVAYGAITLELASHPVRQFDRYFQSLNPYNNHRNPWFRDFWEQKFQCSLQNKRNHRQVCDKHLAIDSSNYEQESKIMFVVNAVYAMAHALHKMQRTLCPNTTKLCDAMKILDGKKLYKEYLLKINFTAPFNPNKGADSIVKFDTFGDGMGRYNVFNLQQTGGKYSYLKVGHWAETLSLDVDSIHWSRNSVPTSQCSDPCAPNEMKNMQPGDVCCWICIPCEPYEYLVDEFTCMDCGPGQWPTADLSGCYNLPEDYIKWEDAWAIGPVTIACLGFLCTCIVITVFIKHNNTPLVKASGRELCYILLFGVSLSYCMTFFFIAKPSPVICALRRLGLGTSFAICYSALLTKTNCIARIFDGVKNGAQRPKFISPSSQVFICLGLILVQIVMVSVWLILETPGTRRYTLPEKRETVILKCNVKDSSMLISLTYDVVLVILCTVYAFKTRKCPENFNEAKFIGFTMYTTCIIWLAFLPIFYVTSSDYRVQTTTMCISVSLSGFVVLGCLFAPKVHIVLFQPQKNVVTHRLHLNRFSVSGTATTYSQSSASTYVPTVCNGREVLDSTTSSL
Procedure: Gα15/TREx cells stably expressing rat mGlu3 were plated in black-walled, clear-bottomed, poly-D-lysine coated 384-well plates in 20 μL of assay medium (DMEM containing 10% dialyzed FBS, 20 mM HEPES, 25 ng/mL tetracycline, 100 units/mL penicillin/streptomycin plus 250 ng/mL Fungizone, and 1 mM sodium pyruvate) at a density of 15K cells/well. The cells were grown overnight at 37° C. in the presence of 5% CO2. […] Dye was removed, 20 μL of assay buffer was added, and the plate was incubated for 10 minutes at room temperature.
(§1) Ca^2+ flux was measured using the Functional Drug Screening System (FDSS7000, Hamamatsu, Japan). After establishment of a fluorescence baseline for about 3 seconds, the compounds of the present invention were added to the cells, and the response in cells was measured. 2.3 minutes later an EC20 concentration of the mGlu3 receptor agonist glutamate was added to the cells, and the response of the cells was measured for 1.9 minutes; an EC80 concentration of agonist was added and readings taken for an additional 1.7 minutes. All test compounds were dissolved and diluted to a concentration of 10 mM in 100% DMSO. Compounds were then serially diluted 1:3 in DMSO into 10 point concentration response curves, transferred to daughter plates, and further diluted into assay buffer to a 2× stock. Calcium fluorescence measures were recorded as fold over basal fluorescence; raw data was then normalized to the maximal response to glutamate.
(§2) The raw data file containing all time points was used as the data source in the analysis template. This was saved by the FDSS as a tab-delimited text file. Data were normalized using a static ratio function (F/F0) for each measurement of the total 360 values per well divided by each well's initial value. Data were then reduced to peak amplitudes (Max−Initial Min) using a time range that starts approximately 3 seconds prior to the glutamate EC80 addition and continues for approximately 90 seconds. This is sufficient time to capture the peak amplitude of the cellular calcium response. Individual amplitudes were expressed as % EMax by multiplying each amplitude by 100 and then dividing the product by the mean of the amplitudes derived from the glutamate ECMax-treated wells. EC50 values for test compounds were generated by fitting the normalized values versus the log of the test compound concentration (in mol/L) using a 4 parameter logistic equation where none of the parameters were fixed. Each of the three values collected at each concentration of test compound were weighted evenly.

rat mGlu2 = rat mGlu2 (Rattus norvegicus (Rat), UniProt P31421); assay: mGlu2 Ca2+ flux assay; conditions: NAM, glutamate EC80; >30,000 = no measurable activity
rat mGlu2, sequence (P31421 19-872): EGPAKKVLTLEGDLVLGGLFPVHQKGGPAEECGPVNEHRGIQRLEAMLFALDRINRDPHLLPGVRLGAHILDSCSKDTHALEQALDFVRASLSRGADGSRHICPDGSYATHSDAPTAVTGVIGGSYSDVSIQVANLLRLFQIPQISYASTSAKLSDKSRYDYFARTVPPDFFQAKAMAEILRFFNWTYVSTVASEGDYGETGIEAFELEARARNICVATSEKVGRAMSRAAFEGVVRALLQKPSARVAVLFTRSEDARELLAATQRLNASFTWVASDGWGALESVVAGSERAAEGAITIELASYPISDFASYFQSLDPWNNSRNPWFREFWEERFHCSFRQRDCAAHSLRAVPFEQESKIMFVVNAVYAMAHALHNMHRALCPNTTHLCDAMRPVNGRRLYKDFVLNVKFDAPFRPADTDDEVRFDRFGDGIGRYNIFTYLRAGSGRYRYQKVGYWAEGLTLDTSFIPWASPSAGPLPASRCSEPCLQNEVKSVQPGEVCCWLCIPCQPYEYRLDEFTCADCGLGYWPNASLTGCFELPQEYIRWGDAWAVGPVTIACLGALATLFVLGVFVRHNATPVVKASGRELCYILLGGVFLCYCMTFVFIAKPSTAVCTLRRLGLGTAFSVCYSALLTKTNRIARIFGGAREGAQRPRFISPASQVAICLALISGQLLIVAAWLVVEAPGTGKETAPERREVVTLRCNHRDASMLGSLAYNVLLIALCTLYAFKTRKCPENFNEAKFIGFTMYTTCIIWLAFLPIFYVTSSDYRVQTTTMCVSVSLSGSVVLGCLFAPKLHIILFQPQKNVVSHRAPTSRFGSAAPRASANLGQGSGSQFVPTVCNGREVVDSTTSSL
Procedure: (§3) Gα15 HEK293 cells stably expressing rat mGlu2 were plated in black-walled, clear-bottomed, poly-D-lysine coated 384-well plates in 20 μL of assay medium (DMEM containing 10% dialyzed FBS, 20 mM HEPES, and 1 mM sodium pyruvate) at a density of 12K cells/well. The cells were grown overnight at 37° C. in the presence of 5% CO2. The next day, medium was removed and the cells incubated with 20 μL of […] Fluo-4, AM prepared as a 2.3 mM stock in DMSO and mixed in a 1:1 ratio with 10% (w/v) pluronic acid F-127 and diluted in assay buffer (Hank's balanced salt solution, 20 mM HEPES, and 2.5 mM probenecid) for 45 minutes at 37° C. Dye was removed, 20 μL of assay buffer was added, and the plate was incubated for 5 minutes at room temperature.
as §1, with “mGlu2” for “mGlu3”
as §2, with “ECMax” for “EMax”, “IC50” for “EC50”

rat mGlu5 = rat mGlu5 (Rattus norvegicus (Rat), UniProt P31424); assay: mGlu5 Ca2+ flux assay; conditions: for EC50: glutamate EC20, >10,000 = no plateau, >30,000 = no measurable activity; for activity at 30 µM: read-out: rat mGlu5 Glu max (%)
rat mGlu5, sequence (P31424 21-1203): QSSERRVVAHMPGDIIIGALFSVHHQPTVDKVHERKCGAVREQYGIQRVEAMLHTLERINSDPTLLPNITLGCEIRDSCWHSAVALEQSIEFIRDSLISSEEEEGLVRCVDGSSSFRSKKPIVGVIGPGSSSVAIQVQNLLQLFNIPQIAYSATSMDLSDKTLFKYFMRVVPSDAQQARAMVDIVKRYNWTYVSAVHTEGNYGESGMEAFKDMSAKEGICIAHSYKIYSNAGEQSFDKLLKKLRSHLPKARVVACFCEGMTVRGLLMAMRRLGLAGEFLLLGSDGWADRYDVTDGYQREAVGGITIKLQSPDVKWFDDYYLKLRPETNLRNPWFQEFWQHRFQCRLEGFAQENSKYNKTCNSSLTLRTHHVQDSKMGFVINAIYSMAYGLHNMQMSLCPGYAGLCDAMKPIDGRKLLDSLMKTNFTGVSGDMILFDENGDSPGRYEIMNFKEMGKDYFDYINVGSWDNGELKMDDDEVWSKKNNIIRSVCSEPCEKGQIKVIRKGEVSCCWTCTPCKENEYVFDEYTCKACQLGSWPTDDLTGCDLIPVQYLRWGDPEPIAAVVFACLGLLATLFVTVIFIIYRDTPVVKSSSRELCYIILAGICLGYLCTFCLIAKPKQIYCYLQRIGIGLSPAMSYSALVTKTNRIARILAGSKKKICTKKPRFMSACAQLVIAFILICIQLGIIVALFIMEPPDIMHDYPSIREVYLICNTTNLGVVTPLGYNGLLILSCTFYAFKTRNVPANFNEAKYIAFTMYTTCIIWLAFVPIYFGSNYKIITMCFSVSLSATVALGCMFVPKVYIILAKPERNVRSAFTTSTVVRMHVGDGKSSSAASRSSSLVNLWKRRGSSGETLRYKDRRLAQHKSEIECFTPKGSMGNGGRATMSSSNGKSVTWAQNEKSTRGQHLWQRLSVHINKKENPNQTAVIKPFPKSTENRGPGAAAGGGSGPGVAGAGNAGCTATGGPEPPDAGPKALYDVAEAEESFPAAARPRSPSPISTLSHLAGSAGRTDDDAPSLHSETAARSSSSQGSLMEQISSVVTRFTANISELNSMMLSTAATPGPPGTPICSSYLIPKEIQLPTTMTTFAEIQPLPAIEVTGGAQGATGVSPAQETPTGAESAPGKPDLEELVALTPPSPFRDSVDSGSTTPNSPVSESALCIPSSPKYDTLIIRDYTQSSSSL
Procedure: as §3, with “HEK 293A cells stably” for “Gα15 HEK293 cells stably”, “expressing rat mGlu5 were plated” for “expressing rat mGlu2 were plated”, “mM HEPES, 100 units/mL penicillin/streptomycin plus 250 ng/mL Fungizone, and 1” for “mM HEPES, and 1”, “density of 20K cells/well. The” for “density of 12K cells/well. The”
as §1, with “mGlu5” for “mGlu3”
as §2, with “EC20/EC80” for “EC80”, “90-120” for “90”

[1] = PAM, read-out: rat mGlu5 EC50 or IC50
[2] = PAM, response at 30 μM test compound as percentage of maximal response to glutamate

| Structure (SMILES) | IC50 (rat mGlu3) [µM] | remaining activity at 30 µM (rat mGlu3) [%] | IC50 (rat mGlu2) [µM] | EC50 (rat mGlu5; [1]) [µM] | activity at 30 µM (rat mGlu5; [2]) [%] | IC50 (rat mGlu5; noted as weak NAM, glutamate EC80, read-out: rat mGlu5 EC50 or IC50) [µM] | activity at 30 µM (rat mGlu5; noted as weak NAM, response at 30 μM test compound) [%] |
| --- | --- | --- | --- | --- | --- | --- | --- |
| O=c1cc(OCCOc2ncccc2Cl)ccn1-c1ccc(F)cc1 [Compound 54, 4-(2-((3-chloropyridin-2-yl)oxy)ethoxy)-1-(4-fluorophenyl)pyridin-2(1H)-one] | 0.443 | 0.96 | > 30 | 7.82 | 94 | – | – |
| O=c1cc(OCCOc2ccc(Cl)cc2)ccn1-c1ccc(F)cc1 [Compound 39, 4-(2-(4-chlorophenoxy)ethoxy)-1-(4-fluorophenyl)pyridin-2(1H)-one] | 0.634 | 1.56 | > 30 | 10 | 81.1 | – | – |
| O=c1cc(OCCOc2cccc(F)c2F)ccn1-c1ccc(F)cc1 [Compound 33, 4-(2-(2,3-difluorophenoxy)ethoxy)-1-(4-fluorophenyl)pyridin-2(1H)-one] | 0.917 | -0.23 | > 30 | 6.85 | 94.1 | – | – |
| O=c1cc(OCCOc2ccccc2)ncn1-c1ccc(F)cc1 [Compound 28, 3-(4-Fluorophenyl)-6-(2-phenoxyethoxy)pyrimidin-4(3H)-one] | 1.27 | 10.1 | > 30 | 1.22 | 89.8 | – | – |
| CC(COc1ccn(-c2ccc(F)cc2)c(=O)c1)Oc1ccccc1 (stereo not drawn) [Compound 1, 1-(4-Fluorophenyl)-4-(2-phenoxypropoxy)pyridin-2(1H)-one] | 0.728 | 0.69 | > 30 | > 30 | – | – | – |
| O=c1cc(OCCOc2ccc(F)cc2)ccn1-c1ccc(F)cc1 [Compound 32, 4-(2-(4-fluorophenoxy)ethoxy)-1-(4-fluorophenyl)pyridin-2(1H)-one] | 1.05 | -0.56 | > 30 | 1.5 | 94.1 | – | – |
| O=c1nc(OCCOc2ccccc2)ccn1-c1ccc(F)c(F)c1 [Compound 15, 1-(3,4-difluorophenyl)-4-(2-phenoxyethoxy)pyrimidin-2(1H)-one] | 0.219 | 2.44 | > 30 | 0.427 | 83 | – | – |
| N#Cc1cccc(OCCOc2ccn(-c3ccc(F)cc3)c(=O)c2)c1 [Compound 41, 3-(2-((1-(4-fluorophenyl)-2-oxo-1,2-dihydropyridin-4-yl)oxy)ethoxy)benzonitrile] | 0.715 | 0.13 | > 30 | – | – | > 10 | 29.1 |
| N#Cc1ccnc(OCCOc2ccn(-c3ccc(F)cc3)c(=O)c2)c1 [Compound 57, 2-(2-((1-(4-fluorophenyl)-2-oxo-1,2-dihydropyridin-4-yl)oxy)ethoxy)isonicotinonitrile] | 0.753 | -0.4 | > 30 | > 10 | 38.7 | – | – |
| O=c1cc(OCCOc2cccc(F)c2)ccn1-c1ccc(F)cc1 [Compound 31, 4-(2-(3-fluorophenoxy)ethoxy)-1-(4-fluorophenyl)pyridin-2(1H)-one] | 0.514 | 1.95 | > 30 | 1.46 | 93.2 | – | – |
| N#Cc1cccc(-n2ccc(OCCOc3ccccc3)cc2=O)c1 [Compound 22, 3-(2-oxo-4-(2-phenoxyethoxy)pyridin-1(2H)-yl)benzonitrile] | 0.559 | 1.16 | > 30 | 6.02 | 87 | – | – |
| CC(COc1ccccc1)Oc1ccn(-c2ccc(F)cc2)c(=O)c1 (stereo not drawn) [Compound 5, 1-(4-fluorophenyl)-4-((1-phenoxypropan-2-yl)oxy)pyridin-2(1H)-one] | 1.16 | 1.6 | > 30 | > 10 | 42.5 | – | – |
| O=c1cc(OCCOc2ccc(Cl)cn2)ccn1-c1ccc(F)cc1 [Compound 55, 4-(2-((5-chloropyridin-2-yl)oxy)ethoxy)-1-(4-fluorophenyl)pyridin-2(1H)-one] | 0.729 | 0.32 | > 30 | > 10 | 25.2 | – | – |
| O=c1cc(OCCOc2ccccc2F)ccn1-c1ccc(F)cc1 [Compound 30, 4-(2-(2-fluorophenoxy)ethoxy)-1-(4-fluorophenyl)pyridin-2(1H)-one] | 0.897 | 2.48 | > 30 | 1.87 | 92.8 | – | – |
